Experimental data reported in patent US5281603A, “Angiotensin II receptor blocking 2,3,6 substituted quinazolinones” (American Cyanamid Company, priority 1993, dated 1994).
Several values for one entry are separate records, joined by “and”; a condition that tells them apart may be missing. Equal values may be shown once.

Tested on: Angiotensin II vasopressor response
Test: AII challenge: antagonism of angiotensin II vasopressor response in conscious spontaneously hypertensive rats
Assay type: in vivo, rat (Male Okamoto-Aoki SHR)
Details: 3 mg/kg I.V.; for % Inhibition / Average Change: SHR n=2; for Response After AII / Change / Control Before AII: individual SHR
Description: By administering a compound of this invention to a rat, and then challenging with angiotensin II, a blockage of the vasopressor response is realized.
Conscious Male Okamoto-Aoki SHR, 16-20 weeks old, weighing approximately 330 g are purchased from Charles River Labs (Wilmington, Mass.). Conscious rats are restrained in a supine position with elastic tape. The area at the base of the tail is locally anesthetized by subcutaneous infiltration with 2% procaine. The ventral caudal artery and vein are isolated, and a cannula made of polyethylene (PE) 10-20 tubing (fused together by heat) is passed into the lower abdominal aorta and vena cava, respectively. The cannula is secured, heparinized (1,000 I.U./ml), sealed and the wound is closed. The animals are placed in plastic restraining cages in an upright position. The cannula is attached to a Statham P23Db pressure transducer, and pulsatile blood pressure is recorded to 10-15 minutes with a Gould Brush recorder. (Chan et al., (Drug Development Res., 18:75-94, 1989).
Angiotensin II (human sequence, Sigma Chem. Co., St. […] Then a test compound, vehicle or a known angiotensin II antagonist is administered i.v., i.p. or orally to each set of rats. The two doses of angiotensin II are given to each rat again at 30, 60, 90, 120, 180, 240 and 300 minutes post dosing the compound or vehicle. The vasopressor response of angiotensin II is measured for the increase in systolic blood pressure in mmHg. The percentage of antagonism or blockade of the vasopressor response of angiotensin II by a compound is calculated using the vasopressor response (increase in systolic blood pressure) of angiotensin II of each rat predosing the compound as 100%. A compound is considered active if at 30 mg/kg i.v. it antagonized at least 50% of the response.

[1] = AII 0.01 mcg/kg IV (so in the source), 60 min post dose
[2] = AII 0.01 mcg/kg IV (so in the source), 90 min post dose
[3] = AII 0.05 mcg/kg IV, 30 min post dose
[4] = AII 0.05 mcg/kg IV, 60 min post dose
[5] = AII 0.05 mcg/kg IV, 90 min post dose
[6] = AII 0.05 mcg/kg IV, 120 min post dose
[7] = AII 0.05 mcg/kg IV, 180 min post dose
[8] = AII 0.05 mcg/kg IV, 240 min post dose
[9] = AII 0.05 mcg/kg IV, 300 min post dose
[10] = AII 0.1 mcg/kg IV, 30 min post dose
[11] = AII 0.1 mcg/kg IV, 120 min post dose
[12] = AII 0.1 mcg/kg IV, 180 min post dose
[13] = AII 0.1 mcg/kg IV, 240 min post dose
[14] = AII 0.1 mcg/kg IV, 300 min post dose
[15] = AII 0.01 mcg/kg IV (so in the source), 60 min post dose, 3 mg/kg
[16] = AII 0.01 mcg/kg IV (so in the source), 90 min post dose, 3 mg/kg
[17] = AII 0.05 mcg/kg IV, 30 min post dose, 3 mg/kg
[18] = AII 0.05 mcg/kg IV, 60 min post dose, 3 mg/kg
[19] = AII 0.05 mcg/kg IV, 90 min post dose, 3 mg/kg
[20] = AII 0.05 mcg/kg IV, 120 min post dose, 3 mg/kg
[21] = AII 0.05 mcg/kg IV, 180 min post dose, 3 mg/kg
[22] = AII 0.05 mcg/kg IV, 240 min post dose, 3 mg/kg
[23] = AII 0.05 mcg/kg IV, 300 min post dose, 3 mg/kg
[24] = AII 0.1 mcg/kg IV, 30 min post dose, 3 mg/kg
[25] = AII 0.1 mcg/kg IV, 120 min post dose, 3 mg/kg
[26] = AII 0.1 mcg/kg IV, 180 min post dose, 3 mg/kg
[27] = AII 0.1 mcg/kg IV, 240 min post dose, 3 mg/kg
[28] = AII 0.1 mcg/kg IV, 300 min post dose, 3 mg/kg

## CCCCc1nc2ccc([C@@]3(C)NN[C@@H]4C(=O)N(C)C(=O)[C@@H]43)cc2c(=O)n1Cc1ccc(-c2ccccc2-c2nnn[nH]2)cc1 (relative stereo) [Example 10, (3-alpha,3aalpha,6aalpha)-3-[2-butyl-3,4-dihydro-4-oxo-3-[[2'-(1H-tetrazol-5-yl)-[1,1'-biphenyl]-4-yl]methyl]-6-quinazolinyl]-2,3,3a,6a-tetrahydro-3,5-dimethyl-pyrrolo[3,4-c]pyrazole-4,6(1H,5H)-dione]
[1]
  % Inhibition: 53%
  Average Change: 22.5 mmHg
  Response After AII: 250 mmHg
[2]
  % Inhibition: 47%
  Average Change: 25 mmHg
  Change: 25 mmHg
[3]
  % Inhibition: 66%
  Average Change: 16 mmHg
[4]
  % Inhibition: 68%
  Average Change: 15 mmHg
  Change: 15 mmHg
[5]
  % Inhibition: 63%
  Average Change: 17.5 mmHg
[6]
  % Inhibition: 47%
  Average Change: 25 mmHg
[7]
  % Inhibition: 47%
  Average Change: 25 mmHg
  Control Before AII: 210 mmHg
[8]
  % Inhibition: 47%
  Average Change: 25 mmHg
  Change: 25 mmHg
[9]
  % Inhibition: 32%
  Average Change: 32.5 mmHg
[10]
  % Inhibition: 53%
  Average Change: 22.5 mmHg
[11]
  % Inhibition: 47%
  Average Change: 25 mmHg
  Change: 25 mmHg
[12]
  % Inhibition: 37%
  Average Change: 30 mmHg
[13]
  % Inhibition: 40%
  Average Change: 28.5 mmHg
[14]
  % Inhibition: 23%
  Average Change: 36.5 mmHg
[15]
  Change: 25 mmHg and 20 mmHg
  Control Before AII: 225 mmHg and 230 mmHg
[16]
  Control Before AII: 225 mmHg and 230 mmHg
  Response After AII: 250 mmHg and 255 mmHg
[17]
  Change: 20 mmHg and 12 mmHg
  Control Before AII: 220 mmHg and 245 mmHg
  Response After AII: 240 mmHg and 257 mmHg
[18]
  Control Before AII: 220 mmHg and 225 mmHg
  Response After AII: 235 mmHg and 240 mmHg
[19]
  Change: 20 mmHg and 15 mmHg
  Control Before AII: 215 mmHg and 225 mmHg
  Response After AII: 235 mmHg and 240 mmHg
[20]
  Change: 20 mmHg and 30 mmHg
  Control Before AII: 215 mmHg and 225 mmHg
  Response After AII: 235 mmHg and 255 mmHg
[21]
  Change: 20 mmHg and 30 mmHg
  Response After AII: 230 mmHg and 240 mmHg
[22]
  Control Before AII: 210 mmHg and 230 mmHg
  Response After AII: 235 mmHg and 255 mmHg
[23]
  Change: 30 mmHg and 35 mmHg
  Control Before AII: 210 mmHg and 225 mmHg
  Response After AII: 240 mmHg and 260 mmHg
[24]
  Change: 20 mmHg and 25 mmHg
  Control Before AII: 225 mmHg and 240 mmHg
  Response After AII: 245 mmHg and 265 mmHg
[25]
  Control Before AII: 220 mmHg and 230 mmHg
  Response After AII: 245 mmHg and 255 mmHg
[26]
  Change: 40 mmHg and 20 mmHg
  Control Before AII: 210 mmHg and 235 mmHg
  Response After AII: 250 mmHg and 255 mmHg
[27]
  Change: 32 mmHg and 25 mmHg
  Control Before AII: 210 mmHg and 235 mmHg
  Response After AII: 242 mmHg and 260 mmHg
[28]
  Change: 40 mmHg and 33 mmHg
  Control Before AII: 210 mmHg and 227 mmHg
  Response After AII: 250 mmHg and 260 mmHg
